{
  "source": "BindingDB's records for doi:10.1016/j.bmc.2009.01.019",
  "about": "(Takeda Pharmaceutical, 2009)",
  "target": "Glycogen synthase kinase-3 beta (Homo sapiens, UniProt P49841)",
  "sequence (P49841 whole entry)": "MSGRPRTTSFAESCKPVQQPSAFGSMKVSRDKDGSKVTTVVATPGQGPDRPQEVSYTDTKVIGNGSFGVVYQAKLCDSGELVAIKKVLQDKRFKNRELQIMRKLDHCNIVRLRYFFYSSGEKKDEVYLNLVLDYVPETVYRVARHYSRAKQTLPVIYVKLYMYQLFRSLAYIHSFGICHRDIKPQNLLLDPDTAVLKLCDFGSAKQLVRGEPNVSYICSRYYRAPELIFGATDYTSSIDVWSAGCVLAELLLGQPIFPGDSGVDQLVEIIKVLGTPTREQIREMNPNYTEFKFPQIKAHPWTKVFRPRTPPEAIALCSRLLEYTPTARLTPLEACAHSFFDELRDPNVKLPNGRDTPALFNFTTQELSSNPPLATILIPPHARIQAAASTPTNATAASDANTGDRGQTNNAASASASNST",
  "assay": "GSK-3beta Kinase Inhibition Assay",
  "settings": "pH 7.5; 37 °C",
  "method": "Human GSK-3beta was expressed as the N-terminal FLAG-tagged protein using a baculovirus expression system. The kinase assay was conducted in a 96-well plate assay format. The kinase reactions were initiated by addition of ATP-solution (final 500 nM), and were incubated for 90 min at 37 deg C for GSK-3 beta. The reactions were terminated by the addition of Kinase-Glo reagent containing EDTA. […] The reaction window was calculated from the difference of the average signals obtained from the control (5% DMSO) and the background wells. […] The best-fit lines were obtained by analyzing the logistic fitting equation.",
  "data": [
    {"smiles": "COc1ccc(CSc2nnc(-c3ccc4nccn4c3)o2)cc1C(F)(F)F", "note": "[oxadiazole derivative, 20q]", "values": [
      {"measurement": "IC50", "value": 6.5, "unit": "nM"}
    ]}
  ]
}
